Test results published in the NIST ThermoML archive (doi:10.1021/je049971a).

Experiment: cn = amount concentration of the nth substance listed, in mol/dm3
Conditions: 101 kPa, Liquid; for speed of sound: Pulse-echo method

NC(N)=O [urea] + O
Conditions	mass density [kg/m3]	speed of sound [m/s]
283.1 K, c1 = 4.275	1069	1578.8
288.15 K, c1 = 2.065	1032	1527.2
288.15 K, c1 = 3.148	1049	1557.2
288.15 K, c1 = 4.269	1067	1587.6
288.15 K, c1 = 5.421	1084	1617
288.15 K, c1 = 7.839	1120	1676.8
288.15 K, c1 = 9.106	1138	1706.5
298.15 K, c1 = 2.059	1030	1548.9
298.15 K, c1 = 3.139	1047	1574.8
298.15 K, c1 = 4.253	1063	1601.1
298.15 K, c1 = 5.405	1081	1627.1
298.15 K, c1 = 7.802	1115	1680.3
298.15 K, c1 = 9.069	1134	1706.3
308.15 K, c1 = 2.051	1026	1564.8
308.15 K, c1 = 3.124	1041	1587.1
308.15 K, c1 = 4.232	1058	1610.9
308.15 K, c1 = 5.378	1076	1633.2
308.15 K, c1 = 7.765	1109	1680.9
308.15 K, c1 = 9.021	1128	1704.1
